# US12398154B2, “Azaquinazoline pan-KRas inhibitors” (Mirati Therapeutics, Inc., priority 2020, dated 2025)
# Experiments:
# KRas G12D = KRas G12D (Homo sapiens, UniProt P01116, G12D); experiment: biochemical;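 further: TR-FRET displacement binding assay on KRas, read after a one-hour incubation at room temperature, IC50 fitted from percent-of-control values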
# Procedure: (§1) The ability of a compound to bind to KRas was measured using a TR-FRET displacement assay. […] After a 60-minute incubation at room temperature, the reaction was measured using a BMG LABTECH CLARIO star Plus via TR-FRET. […] The POC values were fit to a 4-parameter IC50 equation and the IC50 value reported.
# KRas G12R = KRas G12R (Homo sapiens, UniProt P01116, G12R); experiment: biochemical;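 further: TR-FRET displacement assay of compound binding to KRas, read after one hour at room temperature, potency from a four-parameter fit of percent-of-control values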
# KRas G12R, sequence (P01116 1-169 isoform P01116-2 G12R): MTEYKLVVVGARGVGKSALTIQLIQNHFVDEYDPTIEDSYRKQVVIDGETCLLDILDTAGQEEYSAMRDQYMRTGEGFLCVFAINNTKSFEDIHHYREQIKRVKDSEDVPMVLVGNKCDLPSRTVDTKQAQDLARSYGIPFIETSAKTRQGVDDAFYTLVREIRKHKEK
# Procedure: as §1
# KRas G12S = KRas G12S (Homo sapiens, UniProt P01116, G12S); experiment: biochemical;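 further: TR-FRET displacement binding to KRas, read after one hour incubation at room temperature, IC50 from four-parameter fit of percent of control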
# KRas G12S, sequence (P01116 1-169 isoform P01116-2 G12S): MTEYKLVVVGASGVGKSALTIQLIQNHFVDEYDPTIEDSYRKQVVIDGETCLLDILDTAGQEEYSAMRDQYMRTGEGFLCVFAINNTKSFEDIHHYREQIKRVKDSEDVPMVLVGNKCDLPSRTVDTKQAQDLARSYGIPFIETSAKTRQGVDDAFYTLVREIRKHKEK
# Procedure: as §1
# KRas WT = KRas WT (Homo sapiens, UniProt P01116); experiment: biochemical;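 further: binding to KRas read as TR-FRET displacement after a one-hour room-temperature incubation, IC50 derived from percent-of-control values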
# KRas WT, sequence (P01116 1-169 isoform P01116-2): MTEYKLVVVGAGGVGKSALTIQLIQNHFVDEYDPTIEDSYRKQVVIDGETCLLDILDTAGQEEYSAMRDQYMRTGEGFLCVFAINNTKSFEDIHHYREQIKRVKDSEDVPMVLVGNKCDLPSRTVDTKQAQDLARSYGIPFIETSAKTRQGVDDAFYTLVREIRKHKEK
# Procedure: as §1
# KRas Q61H = biological target: T1, KRas Q61H (Homo sapiens, UniProt P01116, Q61H); experiment: KRas binding assay (TR-FRET displacement);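 further: TR-FRET signal read after one hour at room temperature, IC50 derived by four-parameter fitting of percent-of-control values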
# T1 construct: Biotinylated KRas (corresponding to amino acids 1-169, produced at Accelegan Inc.); biotin (biotinylated); purchased Accelegan Inc
# T1 sequence (P01116 1-169 isoform P01116-2 Q61H): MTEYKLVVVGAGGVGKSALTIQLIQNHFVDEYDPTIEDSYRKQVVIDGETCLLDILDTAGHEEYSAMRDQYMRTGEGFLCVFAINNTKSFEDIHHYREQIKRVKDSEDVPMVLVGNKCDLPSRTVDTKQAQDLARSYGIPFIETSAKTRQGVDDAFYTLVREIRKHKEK
# Procedure: as §1
# KRas G12C = KRas G12C (Homo sapiens, UniProt P01116, G12C); experiment: biochemical;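 further: binding to KRas assessed by TR-FRET displacement after one hour incubation at room temperature, potency fitted from percent-of-control values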
# KRas G12C, sequence (P01116 1-169 isoform P01116-2 G12C): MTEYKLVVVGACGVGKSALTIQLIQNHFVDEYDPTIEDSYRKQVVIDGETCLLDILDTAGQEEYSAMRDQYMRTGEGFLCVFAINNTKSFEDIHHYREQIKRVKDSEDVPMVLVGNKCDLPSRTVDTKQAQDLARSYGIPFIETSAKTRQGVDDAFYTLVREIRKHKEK
# Procedure: as §1
# KRas G13D = biological target: T2, KRas G13D (Homo sapiens, UniProt P01116, G13D); experiment: KRas binding assay (TR-FRET displacement);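 further: One-hour room temperature incubation before TR-FRET reading, IC50 from a four-parameter curve fit to percent-of-control data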
# T2 construct: Biotinylated KRas (corresponding to amino acids 1-169, produced at Accelegan Inc.); biotin (biotinylated); purchased Accelegan Inc
# T2 sequence (P01116 1-169 isoform P01116-2 G13D): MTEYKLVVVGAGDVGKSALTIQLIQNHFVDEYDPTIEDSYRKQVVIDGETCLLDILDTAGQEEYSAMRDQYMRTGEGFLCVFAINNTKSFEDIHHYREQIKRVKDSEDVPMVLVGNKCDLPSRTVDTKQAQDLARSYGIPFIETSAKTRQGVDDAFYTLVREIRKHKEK
# Procedure: as §1
# KRas G12V = KRas G12V (Homo sapiens, UniProt P01116, G12V); experiment: biochemical;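 further: KRas binding measured by TR-FRET displacement at room temperature, IC50 fitted from percent of control values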
# KRas G12V, sequence (P01116 1-169 isoform P01116-2 G12V): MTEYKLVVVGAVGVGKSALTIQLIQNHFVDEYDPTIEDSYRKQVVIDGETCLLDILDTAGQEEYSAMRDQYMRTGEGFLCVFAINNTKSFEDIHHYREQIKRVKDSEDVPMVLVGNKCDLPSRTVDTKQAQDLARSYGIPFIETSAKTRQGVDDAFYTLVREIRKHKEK
# Procedure: as §1
# KRas G12A = KRas G12A (Homo sapiens, UniProt P01116, G12A); experiment: biochemical;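 further: binding to KRas measured by TR-FRET displacement after one hour at room temperature, IC50 from a four-parameter fit of percent-of-control values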
# KRas G12A, sequence (P01116 1-169 isoform P01116-2 G12A): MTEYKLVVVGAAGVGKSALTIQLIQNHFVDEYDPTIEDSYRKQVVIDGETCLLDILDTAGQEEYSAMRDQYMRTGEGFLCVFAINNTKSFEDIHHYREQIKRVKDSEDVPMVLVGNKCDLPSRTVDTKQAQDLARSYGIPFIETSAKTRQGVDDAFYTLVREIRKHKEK
# Procedure: as §1
# KRas G12D, sequence (P01116 1-169 isoform P01116-2 G12D): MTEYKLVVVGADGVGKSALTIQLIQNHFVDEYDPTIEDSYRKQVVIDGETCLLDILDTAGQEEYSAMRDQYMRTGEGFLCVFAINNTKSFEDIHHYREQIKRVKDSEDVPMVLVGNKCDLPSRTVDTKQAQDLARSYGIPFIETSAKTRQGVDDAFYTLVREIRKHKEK
SMILES,IC50 (KRas G12D),IC50 (KRas G12R),IC50 (KRas G12S),IC50 (KRas WT),IC50 (KRas Q61H),IC50 (KRas G12C),IC50 (KRas G13D),IC50 (KRas G12V),IC50 (KRas G12A)
"O=S1(=O)CCCN1C1CCCN(c2nc(OCC34CCCN3CCC4)nc3c(F)c(-c4cccc5cccc(F)c45)ncc23)C1 (stereo not drawn) [Example 239, 2-(1-(8-fluoro-7-(8-fluoronaphthalen-1-yl)-2-((hexahydro-1H-pyrrolizin-7a-yl)methoxy)pyrido[4,3-d]pyrimidin-4-yl)piperidin-3-yl)isothiazolidine 1,1-dioxide]",8.65 µM,4.81 µM,2.21 µM,1.83 µM,2670 nM,1.61 µM,1640 nM,4.93 µM,1.98 µM
"Fc1c(-c2cccc3cccc(F)c23)ncc2c(NCc3nnc4ncccn34)nc(OCC34CCCN3CCC4)nc12 [Example 121, N-([1,2,4]triazolo[4,3-a]pyrimidin 3 ylmethyl) 8-fluoro-7-(8-fluoronaphthalen-1-yl)-2-((tetrahydro-1H-pyrrolizin-7a(5H)-yl)methoxy)pyrido[4,3-d]pyrimidin-4-amine]",42.8 µM,12.3 µM,18.6 µM,13 µM,25400 nM,9.1 µM,17300 nM,6.64 µM,15.5 µM
"Fc1c(-c2cccc3cccc(F)c23)ncc2c(N3CCCC4(CC4)C3)nc(OCC34CCCN3CCC4)nc12 [Example 114, 8-fluoro-7-(8-fluoronaphthalen-1-yl)-4-(5-azaspiro[2.5]octan-5-yl)-2-((tetrahydro-1H-pyrrolizin-7a(5H)-yl)methoxy)pyrido[4,3-d]pyrimidine]",4.38 µM,3.75 µM,2.81 µM,2.71 µM,43300 nM,2.48 µM,29900 nM,2.86 µM,2.64 µM
"Fc1c(-c2cccc3cccc(F)c23)ncc2c(NCCc3c[nH]c4ncccc34)nc(OCC34CCCN3CCC4)nc12 [Example 212, N-(2-(1H-pyrrolo[2,3-b]pyridin-3-yl)ethyl)-8-fluoro-7-(8-fluoronaphthalen-1-yl)-2-((tetrahydro-1H-pyrrolizin-7a(5H)-yl)methoxy)pyrido[4,3-d]pyrimidin-4-amine]",15.6 µM,0.88 µM,6.45 µM,8.36 µM,17400 nM,3.12 µM,10100 nM,1.35 µM,2.83 µM
"O=CNC1CCN(c2nc(OCC34CCCN3CCC4)nc3c(F)c(-c4cccc5cccc(F)c45)ncc23)CC1 [Example 244, N-(1-(8-fluoro-7-(8-fluoronaphthalen-1-yl)-2-((hexahydro-1H-pyrrolizin-7a-yl)methoxy)pyrido[4,3-d]pyrimidin-4-yl)piperidin-4-yl)formamide]",18.2 µM,3.1 µM,3.06 µM,5.14 µM,5080 nM,2.82 µM,4860 nM,3.57 µM,1.85 µM
"OC1CC2CC(C1)N(c1nc(OCC34CCCN3CCC4)nc3c(F)c(-c4cccc5cccc(Cl)c45)ncc13)C2 (stereo not drawn) [Example 106, 6-(7-(8-chloronaphthalen-1-yl)-8-fluoro-2-((tetrahydro-1H-pyrrolizin-7a(5H)-yl)methoxy)pyrido[4,3-d]pyrimidin-4-yl)-6-azabicyclo[3.2.1]octan-3-ol]",3.63 µM,1.51 µM,0.369 µM,2.1 µM,2340 nM,1.13 µM,2340 nM,0.612 µM,0.722 µM
"CC1(O)CCCN(c2nc(OCC3(CN4CCCC4)CC3)nc3c(F)c(-c4cccc5cccc(F)c45)ncc23)C1 (stereo not drawn) [Example 257, 1-(8-fluoro-7-(8-fluoronaphthalen-1-yl)-2-((1-(pyrrolidin-1-ylmethyl)cyclopropyl)methoxy)pyrido[4,3-d]pyrimidin-4-yl)-3-methylpiperidin-3-ol]",2.43 µM,6.91 µM,5.22 µM,4.03 µM,6030 nM,4 µM,3960 nM,3.79 µM,5.49 µM
"Fc1c(-c2cccc3cccc(F)c23)ncc2c(NCCNc3cccnc3)nc(OCC34CCCN3CCC4)nc12 [Example 211, N1-(8-fluoro-7-(8-fluoronaphthalen-1-yl)-2-((tetrahydro-1H-pyrrolizin-7a(5H)-yl)methoxy)pyrido[4,3-d]pyrimidin-4-yl)-N2-(pyridin-3-yl)ethane-1,2-diamine]",≥ 100 µM,8.03 µM,18.7 µM,16.9 µM,29800 nM,10.4 µM,20200 nM,14.7 µM,12.2 µM
"O=S1(=O)NCC2(CCCN(c3nc(OCC45CCCN4CCC5)nc4c(F)c(-c5cccc6cccc(F)c56)ncc34)C2)N1 (stereo not drawn) [Example 252, 7-(8-fluoro-7-(8-fluoronaphthalen-1-yl)-2-((tetrahydro-1H-pyrrolizin-7a(5H)-yl)methoxy)pyrido[4,3-d]pyrimidin-4-yl)-2-thia-1,3,7-triazaspiro[4.5]decane 2,2-dioxide]",0.011 µM,0.027 µM,0.008 µM,0.007 µM,9 nM,0.017 µM,6 nM,0.017 µM,0.005 µM

# Next, values leading:
IC50 (KRas G12D),IC50 (KRas G12R),IC50 (KRas G12S),IC50 (KRas WT),IC50 (KRas Q61H),IC50 (KRas G12C),IC50 (KRas G13D),IC50 (KRas G12V),IC50 (KRas G12A),SMILES
4.44 µM,7.5 µM,2.76 µM,3.5 µM,4980 nM,2.34 µM,3480 nM,3.19 µM,3.18 µM,"Fc1c(-c2cccc3cccc(F)c23)ncc2c(N3CC=CCC3)nc(OCC34CCCN3CCC4)nc12 [Example 123, 4-(3,6-dihydropyridin-1 (2H)-yl)-8-fluoro-7-(8-fluoronaphthalen-1-yl)-2-((tetrahydro-1H-pyrrolizin-7a(5H)-yl)methoxy)pyrido[4,3-d]pyrimidine]"
38.8 µM,9.85 µM,19.7 µM,28.4 µM,23300 nM,10.6 µM,35500 nM,7.99 µM,11.3 µM,"O=c1[nH][nH]cc1CNc1nc(OCC23CCCN2CCC3)nc2c(F)c(-c3cccc4cccc(F)c34)ncc12 [Example 230, 4-(((8-fluoro-7-(8-fluoronaphthalen-1-yl)-2-((hexahydro-1H-pyrrolizin-7a-yl)methoxy)pyrido[4,3-d]pyrimidin-4-yl)amino)methyl)-1H-pyrazol-3(2H)-one]"
1.61 µM,2.61 µM,2.32 µM,7.1 µM,10700 nM,2.39 µM,9610 nM,3.98 µM,5.74 µM,"OCc1cc2n(n1)CCCN(c1nc(OCC34CCCN3CCC4)nc3c(F)c(-c4cccc5cccc(F)c45)ncc13)C2 [Example 261, (5-(8-fluoro-7-(8-fluoronaphthalen-1-yl)-2-((hexahydro-1H-pyrrolizin-7a-yl)methoxy)pyrido[4,3-d]pyrimidin-4-yl)-5,6,7,8-tetrahydro-4H-pyrazolo[1,5-a][1,4]diazepin-2-yl)methanol]"
12.6 µM,2.19 µM,3.87 µM,7.02 µM,7140 nM,1.48 µM,7820 nM,1.51 µM,2.07 µM,"Fc1c(-c2cccc3cccc(F)c23)ncc2c(NCCCc3cccnc3)nc(OCC34CCCN3CCC4)nc12 [Example 124, 8-fluoro-7-(8-fluoronaphthalen-1-yl)-N-(3-(pyridin-3-yl)propyl)-2-((tetrahydro-1H-pyrrolizin-7a(5H)-yl)methoxy)pyrido[4,3-d]pyrimidin-4-amine]"
1.89 µM,6.42 µM,4.01 µM,3.36 µM,4770 nM,2.84 µM,3210 nM,3.01 µM,2.91 µM,"O=C1NCC12CCCN(c1nc(OCC34CCCN3CCC4)nc3c(F)c(-c4cccc5cccc(F)c45)ncc13)C2 (stereo not drawn) [Example 98, 6-(8-fluoro-7-(8-fluoronaphthalen-1-yl)-2-((tetrahydro-1H-pyrrolizin-7a(5H)-yl)methoxy)pyrido[4,3-d]pyrimidin-4-yl)-2,6-diazaspiro[3.5]nonan-1-one]"
2.29 µM,0.479 µM,0.191 µM,1.17 µM,1180 nM,0.399 µM,769 nM,0.365 µM,0.634 µM,"O=C1CC(CNc2nc(OCC34CCCN3CCC4)nc3c(F)c(-c4cccc5cccc(Cl)c45)ncc23)CN1 (stereo not drawn) [Example 102, 4-(((7-(8-chloronaphthalen-1-yl)-8-fluoro-2-((tetrahydro-1H-pyrrolizin-7a(5H)-yl)methoxy)pyrido[4,3-d]pyrimidin-4-yl)amino)methyl)pyrrolidin-2-one]"
